From publication PMC11569172 (Scientific Reports, 2024) come the findings set out here.

The target of one assay is STING (Homo sapiens, UniProt Q86WV6). In words: SPR. It counts as binding.
Another assay deals with cGAS (Homo sapiens, UniProt Q8N884). Kind of assay: SPR. It counts as binding.
Chain of cGAS (Q8N884 whole entry): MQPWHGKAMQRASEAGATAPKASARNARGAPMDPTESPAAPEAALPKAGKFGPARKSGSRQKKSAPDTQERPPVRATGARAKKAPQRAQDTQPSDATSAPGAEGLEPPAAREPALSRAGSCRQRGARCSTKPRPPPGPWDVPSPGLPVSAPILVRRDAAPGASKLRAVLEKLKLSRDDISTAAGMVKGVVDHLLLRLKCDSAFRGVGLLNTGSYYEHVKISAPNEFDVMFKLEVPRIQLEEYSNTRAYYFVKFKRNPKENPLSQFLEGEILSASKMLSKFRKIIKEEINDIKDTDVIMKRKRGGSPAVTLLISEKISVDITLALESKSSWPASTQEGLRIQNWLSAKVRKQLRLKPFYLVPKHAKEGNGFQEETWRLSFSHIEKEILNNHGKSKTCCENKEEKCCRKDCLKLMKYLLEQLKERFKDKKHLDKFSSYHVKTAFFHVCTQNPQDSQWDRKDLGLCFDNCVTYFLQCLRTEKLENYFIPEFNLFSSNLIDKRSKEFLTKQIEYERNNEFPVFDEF

Chain of STING (Q86WV6 whole entry): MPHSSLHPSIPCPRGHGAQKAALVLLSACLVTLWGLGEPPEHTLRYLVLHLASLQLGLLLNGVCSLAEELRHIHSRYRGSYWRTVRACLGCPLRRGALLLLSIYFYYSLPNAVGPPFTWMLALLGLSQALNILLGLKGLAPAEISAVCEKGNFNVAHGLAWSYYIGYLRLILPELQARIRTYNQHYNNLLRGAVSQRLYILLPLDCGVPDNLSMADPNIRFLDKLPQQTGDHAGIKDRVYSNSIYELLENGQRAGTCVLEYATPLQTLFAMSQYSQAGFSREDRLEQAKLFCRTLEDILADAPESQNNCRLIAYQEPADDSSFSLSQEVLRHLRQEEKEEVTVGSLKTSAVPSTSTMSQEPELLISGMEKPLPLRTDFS

The Kd is the equilibrium constant for the complex coming apart. On to `COc1cc(O)c2c(=O)c(O)c(-c3ccc(O)cc3)oc2c1` [RH, rhamnocitrin], for which the Kd came to 6.75 µM on STING and 2.6 µM on cGAS.
